Reference: patent US20070037219A1, “Rhesus monkey bombesin receptor subtype-3 (brs-3), nucleotides encoding same, and uses thereof” (priority 2003, published 2007)

Columns and labels:
[1] = test system: rhesus monkey BRS3 receptor; assay: Functional expression of rhesus monkey BRS3 in aequorin-expressing reporter cell line 293-AEQ17 (luminescence, fractional response); format: cell-based; details: 293-AEQ17 cells transfected with rhesus monkey BRS3 plasmid, aequorin light emission, read-out: EC50 value for activation of the rhesus monkey BRS3 receptor
Description: Measurement of rhesus monkey BRS3 receptor expression in the aequorin-expressing stable reporter cell line 293-AEQ17 (Button et al., 1993. Cell Calcium 14: 663-671) was performed using a Luminoskan RT luminometer (Labsystems Inc., Gaithersburg, Md.) controlled by custom software written for a Macintosh PowerPC 6100. 293-AEQ17 cells (8×10^5 cells plated 18 hours before transfection in a T75 flask) were transfected with 22 μg of rhesus monkey BRS3 receptor plasmid DNA: 264 μg lipofectamine.
Following approximately 40 hours of expression, the apo-aequorin in the cells was charged for 4 hours with coelenterazine (10 μM) under reducing conditions (300 μM reduced glutathione) in ECB buffer (140 mM NaCl, 20 mM KCl, 20 mM HEPES-NaOH [pH=7.4], 5 MM glucose, 1 mM MgCl2, 1 mM CaCl2, 0.1 mg/ml bovine serum albumin). The cells were harvested, washed once in ECB medium and resuspended to 500,000 cells/ml. 100 μl of cell suspension (corresponding to 5×10^4 cells) was then injected into the test plate containing the BRS3 agonist peptide D-Tyr6-betaAla11-Phe13-Nle14]bombesin6-14, and the integrated light emission was recorded over 30 seconds, in 0.5-second units. 20 μL of lysis buffer (0.1% final Triton X-100 concentration) was then injected and the integrated light emission recorded over 10 seconds, in 0.5-second units. […]

[2] = test system: all three human bombesin receptor subtypes; details: literature statement, Pradhan et al., Eur. J. Pharmacol. 343: 275-87 (1998); cited from earlier work
[3] = target: rhesus monkey bombesin receptor subtype-3 (rhesus monkey) (UniProt Q6H2Y3); assay: cell-based or functional assay
Sequence of rhesus monkey bombesin receptor subtype-3 (rhesus monkey) (Q6H2Y3 whole entry): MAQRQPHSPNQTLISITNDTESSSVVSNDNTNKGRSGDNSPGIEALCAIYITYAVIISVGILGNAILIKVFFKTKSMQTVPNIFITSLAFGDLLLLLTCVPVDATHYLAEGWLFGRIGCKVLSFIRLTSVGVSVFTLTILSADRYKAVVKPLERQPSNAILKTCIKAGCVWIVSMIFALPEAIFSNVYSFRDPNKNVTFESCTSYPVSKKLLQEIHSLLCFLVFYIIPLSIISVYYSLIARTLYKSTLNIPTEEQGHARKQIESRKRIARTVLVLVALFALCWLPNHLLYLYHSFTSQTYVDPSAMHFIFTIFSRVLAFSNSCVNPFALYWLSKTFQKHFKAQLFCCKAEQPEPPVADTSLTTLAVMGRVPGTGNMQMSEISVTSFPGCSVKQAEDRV

Sequence of rhesus monkey BRS3 receptor (as listed by the source): as the sequence (Q6H2Y3 whole entry) above

EC50 value for activation (aequorin luminescence, fractional response, in transfected 293-AEQ17 cells) [3]	Substance	EC50 [1]	affinity for all three human bombesin receptor subtypes [2]
–	[D-Tyr6-betaAlal 11-Phe13-Nle14] bombesin(6-14) [dYB]	10 nM	high affinity
10 nM	[D-Tyr6-betaAla11-Phe13-Nle14]bombesin(6-14) (peptide)	–	–
